# In patent US20070036775A1 (priority 2001, published 2007):
# Peptide text beside a SMILES is read from it. * marks the point of attachment. Cbz = O=C(OCc1ccccc1)*; CH2F = FC*
# B1: TRAIL: cytokine, Tumor Necrosis Factor-Related Apoptosis-Inducing Ligand, human recombinant (protein, UniProt P50591 1-281, looked up)
# Tumor necrosis factor ligand …: MAMMEVQGGPSLGQTCVLIVIFTVLLQSLCVAVTYVYFTNELKQMQDKYSKSGIACFLKEDDSYWDPNDEESMNSPCWQVKWQLRQLVRKMILRTSEETISTVQEKQQNISPLVRERGPQRVAAHITGTRGRSNTLSSPNSKNEKALGRKINSWESSRSGHSFLSNLHLRNGELVIHEKGFYYIYSQTYFRFQEEIKENTKNDKQMVQYIYKYTSYPDPILLMKSARNSCWSKDAEYGLYSIYQGGIFELKENDRIFVSVTNEHLIDMDHEASFFGAFLVG
# Columns and labels:
# [1] = test system: Hela cells; experiment: STS-induced apoptosis in Hela cells, Hoechst staining of apoptotic nuclei; assay type: cell-based, human; details: for effect on STS-induced apoptosis: HeLa cells transfected with Ku70 construct, 24 hours; for percentages of apoptotic cells: Hela cells, one day
# Experimental: Hela cells (10^6 cells) were transfected with 0.5 μg pEGFP and 1.0 μg pCMV-2B (Vector), pCMV-2B-Ku70 (Ku70 wt), pCMV-2B-Ku701-535 (Ku701-535), or pCMV-2B-Ku70536-609 (Ku70536-609). One day following transfection, cells were treated with 200 nM STS and the number of apoptotic cells was counted as described in FIG. 1 after 24 hours of STS treatment.
# Hela cells (10^6 cells) were treated with 200 nM STS in the absence (STS) or presence of z-VAD-fmk (STS+z-VAD).
# [2] = test system: HEK293T cells; experiment: UVC-irradiation-induced apoptosis in HEK293T cells, Hoechst staining; assay type: cell-based; details: for effect on UVC-irradiation-induced cell death: HEK293T cells transfected with Ku70 construct, 200 J/m^2 UVC, 24 hours
# Experimental: HEK293T cells (10^6 cells) were transfected with 0.5 μg PEGFP and 1.0 μg pCMV-2B (Vector), pCMV-2B-Ku70 wt (Ku70 wt), or pCMV-2B-Ku70536-609 (Ku70536-609). One day following transfection, cells were exposed to 200 J/m^2 of UVC-irradiation. After 24 hours, apoptotic cells were counted as described in FIG. 1.
# One day following transfection, except in the control group (Control), cells were exposed to UVC-irradiation in the absence (UV or UV+Ku70) or the presence of 50 uM z-VAD-fmk (UV+z-VAD).
# HEK293T cells, HeLa cells, and mouse embryonic fibroblasts (MEF) were cultured in DMEM supplemented with 10% fetal bovine serum (FBS).
# [3] = test system: HEK293T cells; experiment: Bax-induced apoptosis in HEK293T cells (pcDNA3-Bax transfection); assay type: cell-based; details: HEK293T cells co-transfected with pcDNA3-Bax and Ku70 construct, 24 hours
# Experimental: 10^6 cells were transfected with 1.0 μg of pcDNA3 (Control) or pcDNA3-Bax (Bax) together with 0.5, 1.0, or 2.0 μg of pCMV-2B-Ku70 wt (Ku70 wt) or pcDNA3-Myc-XIAP (XIAP). In “Bax+Vector” group, 1.0 μg pcDNA3-Bax and 2 ug of pCMV-2B were used, respectively (Control and Bax+Vector). All the cells were also co-transfected with 0.5 μg pEGFP for the marking of transfected cells. Apoptosis in the transfected cells was analyzed 24 hours following transfection with Hoechst dye staining of the nucleus as described in Experimental Procedure. […] 10^6 cells were transfected with 1.0 μg pcDNA3-Bax and 2.0 μg pCMV-2B (Bax+Vector), pCMV-2B-Ku70 wt (Bax+Ku70 wt), or pcDNA3-Myc-XIAP (Bax+XIAP). […] Apoptosis in the transfected cells was analyzed at 24 hours (Control) or the indicated time points following transfection. […] After 24 hours, apoptotic cells were counted as described in FIG. 1B. […] The number of apoptotic cells was determined as described in FIG. 1B. […] Apoptosis in the transfected cells was analyzed at the indicated periods following transfection as described in FIG. 1C.
# HEK293T cells, HeLa cells, and mouse embryonic fibroblasts (MEF) were cultured in DMEM supplemented with 10% fetal bovine serum (FBS). […] Apoptosis in the transfected cells were analyzed as follows: Plasmid encoding EGFP (0.5 ug of pEGFP) was transfected to all the groups to mark the transfected cells. […]
# [4] = biological target: T1, Bax (Homo sapiens, UniProt Q07812); experiment: Co-immunoprecipitation of Flag-tagged Ku70 constructs and Bax; assay type: binding; details: HEK293T cells, Flag-tagged constructs, 50 uM z-VAD-fmk, Chaps-based buffer
# T1 construct: expressed in transfected cells; host or cells: HEK293T
# T1 sequence (Q07812 whole entry): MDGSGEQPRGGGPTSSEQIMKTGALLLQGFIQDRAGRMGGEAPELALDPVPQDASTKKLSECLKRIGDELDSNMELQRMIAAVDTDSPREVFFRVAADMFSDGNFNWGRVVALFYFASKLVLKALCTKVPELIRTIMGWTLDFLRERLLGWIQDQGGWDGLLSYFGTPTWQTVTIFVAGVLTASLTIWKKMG
# Experimental: Interaction of Ku70 and Bax. […] (FIG. 4D) Co-immunoprecipitation of Flag-tagged-Ku70 and endogenous Bax. HEK293T cells (10^6 cells) were co-transfected with 1.0 μg pcDNA3-Bax and 1.0 μg pCMV-2B-control vector (Flag-tagged firefly luciferase), pCMV-2B-Ku70 wt (Flag-Ku70 wt), pCMV-2B-Ku701-535 (Flag-Ku701-535), pCMV-2B-Ku70496-609 (Flag-Ku70496-609) or pCMV-2B-Ku70536-609 (Flag-Ku70536-609) in the presence of 50 μM z-VAD-fmk. Co-immunoprecipitation was performed as described in FIG. 4C, and Western blot of Bax was done with anti-human Bax polyclonal antibody.
# Immunoprecipitation was performed as follows according to the previous methods (Hsu and Youle, 1998, Matsuyama, 1998a). After precleaning of 600 ul of the sample with 50 ul of Protein G-Sepharose at 4° C. for 1 hour, immunoprecipitations were performed by incubating 200 ul of lysates with 20 ul of Protein G-Sepharose preabsorbed with 2 ug of anti-Bax polyclonal antibody or 2 ug of anti-Ku70 monoclonal antibody at 4° C. for 2 hours. After extensive washing in the buffer, beads were boiled in 40 ul of Laemmli buffer and 20 ul of the eluted proteins were subjected to SDS-PAGE immunoblot analysis.
# [5] = test system: Du145 cells; experiment: Apoptosis in Bax-deficient Du145 cells; assay type: cell-based, human; details: Du145, 200 J/m^2 UVC, 24 hours
# Experimental: Du145 cells (10^6 cells) were transfected with 0.5 μg PEGFP and 1.0 μg pCMV-2B (Vector), pcDNA3-Myc-XIAP (XIAP), pCMV-2B-Ku70 wt (Ku70 wt), or pCMV-2B-Ku70536-609 (Ku70536-609). One day following transfection, cells were exposed to 200 J/m^2 of UVC-irradiation. After 24 hours, apoptotic cells were counted as described in FIG. 1.
# Apoptosis was induced by pcDNA3-human Bax (Bax-encoding plasmid)-transfection, Staurosporin (STS)-treatment, UVC-irradiation, anti-Fas-antibody-treatment (clone CH11), and human recombinant TRAIL-treatment (BD-Pharmingen). The amount of the plasmids, the concentration of STS, Fas-antibody, and TRAIL, and the energy of UVC-irradiation are as described in the figure legends. Apoptosis in the transfected cells were analyzed as follows: Plasmid encoding EGFP (0.5 ug of pEGFP) was transfected to all the groups to mark the transfected cells. One day following transfection of the plasmids listed in the figure legends or treatment of the cells with staurosporin (STS) or UVC-irradiation, cells were stained with Hoechst dye and cells with apoptotic nuclei were counted in GFP expressing cells under fluorescent microscope as previously reported (Wei, et al., 2001). Each point in the figures showing percentages of apoptosis represents the mean±SE of three experiments.
# [6] = test system: Bax; experiment: Subcellular localization / mitochondrial translocation of Bax (fractionation, Western blot, confocal); assay type: cell-based; details: HeLa cells 200 nM STS; HEK293T cells UVC 200 J/m^2
# Experimental: FIG. 6A: Subcellular localization of Bax and Ku70. HeLa cells (10^7 cells) were transfected with 10 μg pCMV-2B (Control, STS,) or pCMV-2B-Ku70 (STS+Ku70). One day following transfection, except in the control group (Control), cells were treated by 200 nM STS (STS). One day after STS-treatment, cells were collected and subcellular fractionation was performed as described in Experimental Procedure. The levels of Ku70 (Ku70) and Bax (Bax) in each fraction were analyzed by Western blotting as described in Experimental Procedure. FoF1 ATP synthase subunit α (F1α) and PCNA (PCNA) were used as markers for mitochondrial and nuclear fractions, respectively. HM stands for “Heavy Membrane” fraction containing mitochondria. […] Cytosol fractions (20 μg protein) were separated by SDS-PAGE and analyzed by Western blotting for Ku70 (anti-Ku70 monoclonal antibody, BD-Pharmingen) and β-Tubulin (anti-β-Tubulin monoclonal antibody, BD-Pharmingen) levels. […] MEFs derived from wild-type (Ku70+/+) or Ku70-knockout mice (Ku70−/−) were analyzed as described in FIG. 6A. […] MEFs derived from wild-type (Ku70+/+) or Ku70-deficient (Ku70−/−) mice were treated with STS (200 nM) and cells were analyzed at indicated various periods after treatment as described in FIG. 6A. […]
# [7] = test system: Bax; experiment: Mitochondrial translocation of Bax after TRAIL treatment in T98-G and Hep3B cells; assay type: cell-based, human; details: T98G and Hep3B, 100 ng/ml TRAIL, 24 hours
# Experimental: FIG. 14. […] One day following the transfection, cells were treated by etoposide (20 uM). One day after the addition of etoposide into the culture, cells were collected and subcellular fractionation was performed as described in FIG. 9. […] Bax leveles in the samples of the fractions of the cytosol (“Cytosol”) and the heavy membrane (“HM”) were analyzed by Western blotting (middle and lower panels). […] All cells were also co-transfected with the plasmid encoding Green Fluorescent Protein (GFP) (pEGFP plasmid) for the detection of the transfected cells by GFP expression. One day following the transfection, etoposide (20 uM), cisplatin (20 uM), doxorubicin (1 uM), or TRAIL (100 ng/ml) was added to the culture, and cells were culture for 48 hours. The percentages of apoptotic cells were counted in GFP-expressing cells by staining the nucleus with Hochst-dye on day 1 and 2 of the culture. […] T98-G (glioma cell line) and Hep3B (hepatoma cell line) cells were cultured for 24 hours in the absence (“Control”) or the presence (“TRAIL”) of 100 ng/ml TRAIL. After the culture, cells were collected and subcellular fractionation was performed as described in FIG. 2. The samples of the cytosol fraction (20 ug protein) (“Cytosol”) and the equivalent proportion of heavy membrane fraction (“HM”) were subjected to Western analysis of Bax.
Molecule,effect on STS-induced apoptosis ([1]; 200 nM STS),effect on UVC-irradiation-induced cell death [2],effect on Bax-induced apoptosis [3],binding to Bax (co-immunoprecipitation) [4],also measured
Ku70536-609: Ku70 mutant expressing only the C-terminal 74 amino acids of Ku70,sufficient to block,sufficient to block,sufficient to block,bound to Bax,effect on UVC-irradiation-induced cell death in Bax-deficient cells [5]: did not rescue Bax-deficient cells from UVC-irradiation-induced cell death; mitochondrial translocation of Bax induced by STS-treatment or UVC-irradiation [6]: inhibited Bax relocalization induced by UVC-irradiation
"Ku70496-609: Ku70 mutant construct encoding amino acids 496-609 of Ku70, lacking Ku80-binding domain",retained the cytoprotective activities,retained the cytoprotective activities,retained the cytoprotective activities,bound to Bax,
"COC(=O)C[C@H](NC(=O)[C@H](C)NC(=O)[C@@H](NC(=O)OCc1ccccc1)C(C)C)C(=O)CF [z-VAD-fmk, reference compound] (Cbz-Val-Ala-Asp(OMe)-CH2F)",,,,,"percentages of apoptotic cells ([1]; 200 nM STS in presence of z-VAD-fmk): 11±3%; percentages of apoptotic cells ([2]; HEK293T cells, UVC 200 J/m^2 in presence of 50 uM z-VAD-fmk, one day, UV alone 42±5%): 9±1%"
"CN[C@@H]1C[C@H]2O[C@@](C)([C@@H]1OC)n1c3ccccc3c3c4c(c5c6ccccc6n2c5c31)C(=O)NC4 [STS, Staurosporine, reference compound]",,,,,"percentages of apoptotic cells ([1]; 200 nM STS, control 3±1%): 49±4%"
B1,,,,,mitochondrial translocation of Bax [7]: did not induce the mitochondrial translocation of Bax
